Assay results from BindingDB's records for patent US11970463 (Astrazeneca, 2024).
pIC50: −log10 of the molar value.

Target: Potassium voltage-gated channel subfamily H member 2 (Homo sapiens, UniProt Q12809)
Assay: hERG Assay
Description: Experiments were performed on the SyncroPatch 384PE (Nanion Technologies) high throughput patch clamp platform at rt and used medium resistance chips with 4 patch holes per site. hERG-expressing Chinese hamster ovary K1 (CHO) cell line were used in assay-ready format and kept in liquid nitrogen until use. 2 vials of cells (10×10^6 cells per vial) were thawed and added to 20 mL Hepes-buffered saline solution (HBSS). HBSS comprised 140 mM NaCl, 4 mM KCl, 10 mM HEPES and 5 mM Glucose (pH 7.4). The internal patch clamp solution was KF 120 mM, KCl 20 mM, HEPES 10 mM, EGTA 10 mM, and 25 μM Escin (pH7.2). After the initial sealing process was complete, a seal enhancer solution comprising HBSS supplemented with 10 mM CaCl2 and 1 mM MgCl2 was applied to cells. The external solution was then exchanged (4 times) for external patch clamp solution comprising NaCl 80 mM, KCl 4 mM, HEPES 10 mM, CaCl2 2 mM, MgCl2 1 mM, glucose 5 mM, and NMDG 60 mM (pH 7.4). All solutions were stored at rt, except Escin, which was stored at 4° C. All compounds were dispensed in greiner-bio 384 well plates and tested in a 6 point cumulative assay (final DMSO concentration 0.33%). Only wells that passed acceptance criteria (30 MegaOhm seal resistance, Z prime >0.4 and current size >0.2 nA) were used in this analysis.

Potassium voltage-gated channel subfamily H member 2, sequence (Q12809 whole entry): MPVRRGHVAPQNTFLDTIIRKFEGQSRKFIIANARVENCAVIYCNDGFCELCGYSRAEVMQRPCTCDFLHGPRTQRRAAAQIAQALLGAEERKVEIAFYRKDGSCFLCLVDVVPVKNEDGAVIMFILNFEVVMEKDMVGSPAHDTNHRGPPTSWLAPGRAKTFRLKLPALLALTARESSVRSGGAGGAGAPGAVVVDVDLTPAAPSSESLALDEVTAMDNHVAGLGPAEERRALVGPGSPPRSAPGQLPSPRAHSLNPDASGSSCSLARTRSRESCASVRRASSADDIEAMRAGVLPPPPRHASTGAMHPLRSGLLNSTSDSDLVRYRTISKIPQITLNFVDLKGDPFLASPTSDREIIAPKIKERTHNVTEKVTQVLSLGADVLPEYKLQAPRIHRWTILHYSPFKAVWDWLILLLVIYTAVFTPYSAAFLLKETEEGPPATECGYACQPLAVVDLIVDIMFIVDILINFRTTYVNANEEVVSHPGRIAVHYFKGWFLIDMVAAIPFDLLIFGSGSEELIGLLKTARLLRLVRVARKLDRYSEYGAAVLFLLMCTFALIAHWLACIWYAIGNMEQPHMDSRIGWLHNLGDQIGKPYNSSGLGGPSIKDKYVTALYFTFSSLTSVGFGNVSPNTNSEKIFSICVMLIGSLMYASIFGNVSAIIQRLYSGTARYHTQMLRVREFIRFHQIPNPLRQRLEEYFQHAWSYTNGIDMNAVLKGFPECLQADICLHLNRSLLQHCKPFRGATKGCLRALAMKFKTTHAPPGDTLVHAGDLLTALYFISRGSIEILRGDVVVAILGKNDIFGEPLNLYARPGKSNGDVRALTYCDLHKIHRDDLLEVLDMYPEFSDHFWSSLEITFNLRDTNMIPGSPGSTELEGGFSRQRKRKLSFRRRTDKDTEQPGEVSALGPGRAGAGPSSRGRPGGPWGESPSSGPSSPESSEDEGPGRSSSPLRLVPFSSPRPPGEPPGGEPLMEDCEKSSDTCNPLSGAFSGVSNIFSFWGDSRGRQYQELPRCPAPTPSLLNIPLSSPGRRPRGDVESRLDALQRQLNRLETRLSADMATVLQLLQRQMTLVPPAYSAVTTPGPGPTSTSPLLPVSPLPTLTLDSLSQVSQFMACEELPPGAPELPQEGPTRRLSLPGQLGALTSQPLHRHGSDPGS

For `C[C@@]1(O)CC[C@@H](Nc2nnc(-c3ccc(C(F)(F)F)cc3O)c3ccncc23)C1` [US11970463, Example 38], the pIC50 was 4.47.
